Broadly, the EC50 is the concentration needed to bring the measured effect to its halfway point.

Among the data in patent US10087178B2, “Substituted spiropyrido[1,2-a]pyrazine derivative and medicinal use thereof as HIV integrase inhibitor” (priority 2012, dated 2018) are EC50 values, retold here.

Counter-ions that a name gives are not always drawn.

One experiment deals with HIV-1 NL4-3 strain. Kind of experiment: Evaluation of antiviral activity: acute infection system of MT-4 cell with HIV-1 NL4-3 strain. It is filed as cell-based. As to conditions: Human immunodeficiency virus 1, NL43, MT4, 120 h, MT-4 cells infected with HIV-1 NL4-3 strain (MOI 0.05), cultured 5 days, Cell Titer-Glo; read-out: antiviral activity (EC50). (Cellular ATP, detected with luciferase, serves as a proxy for viable cell number.)
With `CC(C)O[C@H]1C[C@]2(CN(C(C)C)C(=O)c3c(O)c(=O)c(C(=O)NCc4ccc(F)cc4F)cn32)C1` [Example S33, N-(2,4-difluorobenzyl)-9′-hydroxy-cis-3-isopropoxy-2′-isopropyl-1′,8′-dioxo-1′,2′,3′,8′-tetrahydrospiro[cyclobutane-1,4′-pyrido[1,2-a]pyrazine]-7′-carboxamide hydrochloride], the EC50 was 6.4 nM. The same measure, in the same setting: next, `COC[C@H]1C[C@@]12CN(C)C(=O)c1c(O)c(=O)c(C(=O)NCc3cc(OC)cc(Cl)c3F)cn12` [Example T21, (1S,2S)-N-(3-chloro-2-fluoro-5-methoxybenzyl)-9′-hydroxy-2-(methoxymethyl)-2′-methyl-1′,8′-dioxo-1′,2′,3′,8′-tetrahydrospiro[cyclopropane-1,4′-pyrido[1,2-a]pyrazine]-7′-carboxamide]: 6.1 nM; `CC(C)N1C(=O)c2c(O)c(=O)c(C(=O)NCc3ccc(F)cc3F)cn2C[C@]12C[C@@H](O)C2` [Example S54, N-(2,4-difluorobenzyl)- trans-3,9′-dihydroxy-2′-isopropyl-1′,8′-dioxo-1′,2′,4′,8′-tetrahydrospiro[cyclobutane-1,3′-pyrido[1,2-a]pyrazine]-7′-carboxamide hydrochloride]: 27 nM.

`CCC(=O)Oc1c2n(cc(C(=O)NCc3cccc(Cl)c3F)c1=O)[C@]1(CN(C)C2=O)C[C@H](OC)C1` [Example S65, 7′-(3-chloro-2-fluorobenzylcarbamoyl)-cis-3-methoxy-2′-methyl-1′,8′-dioxo-1′,2′,3′,8′-tetrahydrospiro[cyclobutane-1,4′-pyrido[1,2-a]pyrazin]-9′-yl propionate]: the EC50 was determined as 1 nM. On the same count and under the same terms, next, `CCN1C[C@@]2(C[C@H]2COC)n2cc(C(=O)NCc3cccc(Cl)c3F)c(=O)c(O)c2C1=O` [Example T30, (1S,2R)-N-(3-chloro-2-fluorobenzyl)-2′-ethyl-9′-hydroxy-2-(methoxymethyl)-1′,8′-dioxo-1′,2′,3′,8′-tetrahydrospiro[cyclopropane-1,4′-pyrido[1,2-a]pyrazine]-7′-carboxamide]: 4.4 nM; `CCN1C[C@@]2(C[C@@H]2COC)n2cc(C(=O)NCc3ccc(F)cc3F)c(=O)c(O)c2C1=O` [Example T2, (1S,2S)-N-(2,4-difluroobenzyl)-2′-ethyl-9′-hydroxy-2-(methoxymethyl)-1′,8′-dioxo-1′,2′,3′,8′-tetrahydrospiro[cyclopropane-1,4′-pyrido[1,2-a]pyrazine]-7′-carboxamide hydrochloride]: 4.2 nM; `CCN1C[C@@]2(C[C@@H]2COC)n2cc(C(=O)NCc3cccc(Cl)c3F)c(=O)c(O)c2C1=O` [Example T19, (1S,2S)-N-(3-chloro-2-fluorobenzyl)-2′-ethyl-9′-hydroxy-2-(methoxymethyl)-1′,8′-dioxo-1′,2′,3′,8′-tetrahydrospiro[cyclopropane-1,4′-pyrido[1,2-a]pyrazine]-7′-carboxamide]: 3.8 nM. `CO[C@H]1C[C@@]2(Cn3cc(C(=O)NCc4cccc(Cl)c4F)c(=O)c(O)c3C(=O)N2C)C1` [Example S62, N-(3-chloro-2-fluorobenzyl)-9′-hydroxy-trans-3-methoxy-2′-methyl-1′,8′-dioxo-1′,2′,4′,8′-tetrahydrospiro[cyclobutane-1,3′-pyrido[1,2-a]pyrazine]-7′-carboxamide hydrochloride]: the EC50 was 4.6 nM.

Consider `CCN1C(=O)c2c(O)c(=O)c(C(=O)NCc3cccc(Cl)c3F)cn2C[C@]12C[C@@H](CO)C2` [Example S58, N-(3-chloro-2-fluorobenzyl)-2′-ethyl-9′-hydroxy-trans-3-(hydroxymethyl)-1′,8′-dioxo-1′,2′,4′,8′-tetrahydrospiro[cyclobutane-1,3′-pyrido[1,2-a]pyrazine]-7′-carboxamide hydrochloride], for which the EC50 worked out at 6.8 nM.

For `CCN1C[C@]2(C[C@H](CO)C2)n2cc(C(=O)NCc3cccc(Cl)c3F)c(=O)c(O)c2C1=O` [Example S46, N-(3-chloro-2-fluorobenzyl)-2′-ethyl-9′-hydroxy-cis-3-(hydroxymethyl)-1′,8′-dioxo-1′,2′,3′,8′-tetrahydrospiro[cyclobutane-1,4′-pyrido[1,2-a]pyrazine]-7′-carboxamide hydrochloride], the EC50 was determined as 4.4 nM.

Still in this experiment, the particulars now being: Human immunodeficiency virus 1, NL43, MT4, 120 h, antiviral activity; MT-4 cells infected with HIV-1 NL4-3 (MOI 0.05), 5 days culture, Cell Titer-Glo luminescence; read-out: EC50.
For the molecule `CCN1C(=O)c2c(O)c(=O)c(C(=O)NCc3cccc(Cl)c3F)cn2C[C@@]12C[C@@H]2COC` [Example 17, (1S,2S)—N-(3-chloro-2-fluorobenzyl)-2′-ethyl-9′-hydroxy-2-(methoxymethyl)-1′,8′-dioxo-1′,2′,4′,8′-tetrahydrospiro[cyclopropane-1,3′-pyrido[1,2-a]pyrazine]-7′-carboxamide], the EC50 is 3.4 nM.

`CO[C@H]1C[C@]2(CN(C(C)C)C(=O)c3c(O)c(=O)c(C(=O)NCc4ccc(F)cc4F)cn32)C1` [Example S6, N-(2,4-difluorobenzyl)-9′-hydroxy-2′-isopropyl-cis-3-methoxy-1′,8′-dioxo-1′,2′,3′,8′-tetrahydrospiro[cyclobutane-1,4′-pyrido[1,2-a]pyrazine]-7′-carboxamide hydrochloride]: the EC50 turned out to be 3.7 nM.

On to `CC(C)N1CC2(CC(O)C2)n2cc(C(=O)NCc3ccc(F)cc3F)c(=O)c(O)c2C1=O` (single isomer, unassigned) [Example S4, N-(2,4-difluorobenzyl)-cis-3,9′-dihydroxy-2′-isopropyl-1′,8′-dioxo-1′,2′,3′,8′-tetrahydrospiro[cyclobutane-1,4′-pyrido[1,2-a]pyrazine]-7′-carboxamide], for which the EC50 came out at 4.9 nM.

The experiment is the same for the next values; noted with them: Human immunodeficiency virus 1, NL43, MT4, 120 h, read-out: antiviral activity (EC50), MT-4 cells infected with HIV-1 NL4-3 strain (MOI 0.05), cultured 5 days, Cell Titer-Glo.
As for `CCN1C(=O)c2c(O)c(=O)c(C(=O)NCc3cccc(Cl)c3F)cn2C[C@@]12C[C@@H]2CO` [Example T44, (1S,2S)-N-(3-chloro-2-fluorobenzyl)-2′-ethyl-9′-hydroxy-2-(hydroxymethyl)-1′,8′-dioxo-1′,2′,4′,8′-tetrahydrospiro[cyclopropane-1,3′-pyrido[1,2-a]pyrazine]-7′-carboxamide hydrochloride], the EC50 is 5.1 nM. On the same count and under the same terms, the result for `CCN1C[C@]2(C[C@H]2CO)n2cc(C(=O)NCc3cccc(Cl)c3F)c(=O)c(O)c2C1=O` [Example T17, (1R,2R)-N-(3-chloro-2-fluorobenzyl)-2′-ethyl-9′-hydroxy-2-(hydroxymethyl)-1′,8′-dioxo-1′,2′,3′,8′-tetrahydrospiro[cyclopropane-1,4′-pyrido[1,2-a]pyrazine]-7′-carboxamide hydrochloride] reads 5.7 nM; that for `CCN1C[C@@]2(C[C@H]2CO)n2cc(C(=O)NCc3cccc(Cl)c3F)c(=O)c(O)c2C1=O` [Example T29, (1S,2R)-N-(3-chloro-2-fluorobenzyl)-2′-ethyl-9′-hydroxy-2-(hydroxymethyl)-1′,8′-dioxo-1′,2′,3′,8′-tetrahydrospiro[cyclopropane-1,4′-pyrido[1,2-a]pyrazine]-7′-carboxamide hydrochloride], 4.8 nM.

The experiment is the same for the next values; noted with them: read-out: EC50.
With `CO[C@H]1C[C@]2(CN(C)C(=O)c3c(O)c(=O)c(C(=O)NCc4cccc(Cl)c4F)cn32)C1` [Example 1, N-(3-chloro-2-fluorobenzyl)-9′-hydroxy-cis-3-methoxy-2′-methyl-1′,8′-dioxo-1′,2′,3′,8′-tetrahydrospiro[cyclobutane-1,4′-pyrido[1,2-a]pyrazine]-7′-carboxamide hydrochloride], the EC50 turned out to be 3.1 nM.
